Laboratory results taken from US20100048523A1, “Compounds, Compositions and Methods for Treating Hormone-Dependent Maladies” (priority 2006, published 2010).

Assays:
[1] = test system: p21−/− MCF-10A breast cancer cell lines; experiment: High-throughput cell-based growth inhibition screen, p21 knock-out (Erik) vs parental (Erin) cell lines; design: species or system human
[2] = test system: MCF-10A cells stably overexpressing ERα; experiment: Growth assay (crystal violet) of ERα positive MCF-10A cells; type: cell-based, human; settings: for effect on estrogen-induced proliferation: ERα positive MCF-10A (p21+/+), with estrogen
Description: (§1) ERα positive MCF-10A (ERIN#9), pIRESpuro2 transfection control (−) control, and ERα positive MCF-10A p21−/− (1.6#4) cell lines were seeded in assay media (no EGF) and exposed to estrogen (E2), vehicle only, estrogen and Tamoxifen (E2+Tam), estrogen and Faslodex (E2+ICI), Tamoxifen alone (Tam) and Faslodex alone (ICI). Cells were grown for 1 week and stained with crystal violet. Results are representative of multiple clones including heterozygous controls, and assays were repeated three times for each clone.
(§2) The creation of a non-tumorigenic human breast epithelial cell line (MCF-10A) in which the p21 gene was deleted through targeted homologous recombination has been previously described. Because p21 has been implicated in Tamoxifen resistance, and the response of Tamoxifen in both parental MCF-10A cells and their p21−/− derivatives was assessed. MCF-10A cells are ERα negative and unresponsive to estrogen stimulation. In order to develop a model system to analyze the effects of estrogen and anti-estrogen signaling, MCF-10A cells and their p21−/− derivatives were stably transfected with a cDNA encoding for wild type ERα.
(§3) Unlike previous attempts to stably integrate ERα into the MCF-10A cell line, a cloning vector containing an internal ribosome entry site (IRES) was used to ensure high levels of wild type ERα expression. The full coding sequence of wild type ERα was PCR cloned into pIRESpuro2 (Clontech) and the absence of any coding mutations was verified by direct sequencing.
(§4) Cell lines were generated and grown with charcoal stripped dextran treated serum (Hyclone) and phenol red free medium to avoid any possible growth effects of estrogen in the medium.

[3] = test system: MCF-10A p21 knock out cell lines (ERα positive); experiment: Growth assay (crystal violet) of ERα positive MCF-10A p21−/− cells; type: cell-based, human; settings: for growth (cell proliferation) in response to the substance: ERα positive MCF-10A p21−/− (p21 null)
Description: as §1, §2, §3, §4

[4] = test system: metastatic breast cancer (skin); experiment: Case report: metastatic breast cancer (skin) nodule under Tamoxifen; type: in vivo, human
[5] = test system: ER/PR positive breast cancers; settings: adjuvant setting; cited from earlier work

Row | Compound | targeting of tamoxifen resistant ER positive cells [1] | effect on estrogen-induced proliferation [2] | growth (cell proliferation) in response to the substance [3] | further results
1 | CC12CCC3c4ccc(O)cc4CCC3C1CCC21OCCO1 (stereo not shown) [Compound 233-D4] | target tamoxifen resistant ER positive cells |  |  | 
2 | CC(=O)Oc1ccc2c(c1)CCC1C2CC[C@@]2(C)C1CCC21OCCO1 (stereo partly shown) [Compound 233-E09] | target tamoxifen resistant ER positive cells |  |  | 
3 | C[C@]12CC[C@@H]3c4ccc(O)cc4C[C@@H](CCCCCCCCC[S+]([O-])CCCC(F)(F)C(F)(F)F)[C@H]3[C@@H]1CC[C@@H]2O (stereo partly shown) [Faslodex, fulvestrant] |  | inhibited |  | effect on proliferative effects of estrogen ([3]; p21−/− cell lines, with estrogen): could still inhibit
4 | O=C(c1ccc(OCCN2CCCCC2)cc1)c1c(-c2ccc(O)cc2)sc2cc(O)ccc12 [Raloxifene] |  | behaved identically to Tamoxifen | not as pronounced as Tamoxifen's | 
5 | CC/C(=C(\c1ccccc1)c1ccc(OCCN(C)C)cc1)c1ccccc1 [Tamoxifen] |  | inhibited | grew in response | growth inhibitory effect on p21 knock out cells ([3]; ERα positive MCF-10A p21−/−): resistant to the growth inhibitory effects; behaviour of recurrent skin nodule during Tamoxifen ([4]; 2003, in the presence of Tamoxifen): growing in the presence of Tamoxifen; behaviour of skin nodule after Tamoxifen cessation ([4]; one month after Tamoxifen cessation): went away after cessation; reduction of the risk of recurrence [5]: ≤ 47%
6 | estrogen |  |  |  | proliferation in response to the substance ([2]; ERα positive MCF-10A, assay media without EGF, 1 week): proliferated in response to estrogen
